Measured values: US8859574B2 (IRM LLC, priority 2008, dated 2014)

Molecular target: T1, IGF-1R Ba/F3 (Homo sapiens, UniProt P08069)
T1 construct: fused on or other part: TEL- (or BCR-) IGF-1R in Ba/F3: the kinase part holds the site
Test: Ba/F3 Cell Viability Inhibition Assay (IGF-1R Ba/F3)
Type: cell-based, murine
Conditions: Tel-TK transformed Ba/F3 cells, 48 hours, Britelite luminescence
From the text: The IC50 of a drug may be determined constructing a dose-response curve and examining the effect of different concentrations of antagonist on reversing agonist activity. IC50 values may be calculated for a given antagonist by determining the concentration needed to inhibit half of the maximum biological response of the agonist. To calculate IC50 values, a series of dose-response data (e.g., drug concentrations x1, x2, . . . , xn and growth inhibition y1, y2, . . . , yn, the values of y are in the range of 0-1) is generated. IC50 values may be determined by a computer-aided system using the formula: y=D+((A−D)/(1+10^(x-log(IC50)B) • where A is the ratio of growth inhibition between lowest drug concentration and control; B is the slope of sigmoidal curvel; and D is the ratio of growth inhibition between highest drug concentration and control.
Ba/F3 is a murine IL-3-dependent pro-B lymphoma cell line. Parental Ba/F3 cells are used to generate a panel of sublines whose proliferation and survival is rendered IL-3-independent by stable transduction with individual tyrosine kinases activated by fusion with the amino-terminal portion of TEL (amino acid 1-375) or BCR. In order to generate Ba/F3 cell lines transformed by Tel-Tyrosine Kinase (TK) fusions, parental Ba/F3 cells are infected with a retrovirus harboring each TEL-fusion kinase and subjected to puromycin selection and IL-3 withdrawal to obtain IL-3-independent, transformed Ba/F3 cells.
Each transformed Ba/F3 cells are cultured in RPMI-1640 media (Gibco Cat #11875093, Carlsbad, Calif.) supplemented with 10% FBS (Hyclone Cat #SV30014.03, Logan, Utah), 4.5 g/L glucose (Sigma #G5400, St. Louis, Mo.), 1.5 g/L sodium bicarbonate (Biowhittaker #17-613E, Walkersville, Md.) and Pen/Strep (Gibco #10378-016, Carlsbad, Calif.). Cells are splitted twice weekly.
The potency of test compounds against various Tel-TK transformed Ba/F3 lines is determined as follows. Exponentially growing BaF3 Tel-TK cells are diluted in fresh medium to 75,000 cells/mL and seeded into 384-well plates (3750 cells/well) at 50 μL/well using a μFill liquid dispenser (BioTek, Winooski, Vt., USA). Duplicate plates are run for each cell line. Test and control compounds are serially diluted with DMSO and arrayed in a polypropylene 384-well plate. […] of compound is transferred into the assay plates using a pin-transfer device, and the plates are incubated at 37° C. (5% CO2) for 48 hours. 25 μL Britelite (Perkin Elmer) is added and luminescence is quantified using Analyst GT (Molecular Devices). Custom curve-fitting software is used to produce a logistic fit of percent cell viability as a function of the logarithm of inhibitor concentration. The IC50 is interpolated as the concentration of compound needed to reduce cell viability to 50% of a DMSO control. Parental Ba/F3 cells that are maintained and cultured in presence of IL-3 (1 ng/ml in final) are diluted in fresh medium containing IL-3 (1 ng/ml in final) to 75,000 cells/mL following the same procedure as described above.

T1 sequence (P08069 999-1274 limits assumed): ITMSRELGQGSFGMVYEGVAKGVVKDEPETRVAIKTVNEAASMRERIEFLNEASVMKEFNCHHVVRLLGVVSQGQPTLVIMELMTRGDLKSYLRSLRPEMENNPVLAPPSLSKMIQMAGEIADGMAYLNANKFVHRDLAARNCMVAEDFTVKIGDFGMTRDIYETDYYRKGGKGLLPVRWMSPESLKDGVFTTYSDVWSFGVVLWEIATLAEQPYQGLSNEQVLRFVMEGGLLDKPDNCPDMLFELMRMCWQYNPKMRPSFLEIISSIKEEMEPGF

## Cc1cc(Nc2nc(Nc3cc(C)c(C4CCN(CCS(=O)(=O)N5CCC5)CC4)cc3F)ncc2Cl)n[nH]1 [Compound 61, N2-(4-(1-(2-(azetidin-1-ylsulfonyl)ethyl)piperidin-4-yl)-2-fluoro-5-methylphenyl)-5-chloro-N4-(5-methyl-1H-pyrazol-3-yl)pyrimidine-2,4-diamine]
  IC50: 56 nM

## Cc1cc(Nc2nc(Nc3cc(C)c(C4CCN(Cc5ccncc5)CC4)cc3C)ncc2Cl)n[nH]1 [Compound 309, 5-chloro-N2-(2,5-dimethyl-4-(1-(pyridin-4-ylmethyl)piperidin-4-yl)phenyl)-N4-(5-methyl-1H-pyrazol-3-yl)pyrimidine-2,4-diamine]
  IC50: 8 nM

## Cc1cc(Nc2nc(Nc3cc(C)c(C4CCN(C(=O)CN5CCOCC5)CC4)cc3F)ncc2Cl)n[nH]1 [Compound 97, 1-(4-(4-(5-chloro-4-(5-methyl-1H-pyrazol-3-ylamino)pyrimidin-2-ylamino)-5-fluoro-2-methylphenyl)piperidin-1-yl)-2-morpholinoethanone]
  IC50: 20 nM

## Cc1cc(Nc2nc(Nc3cc(C)c(C4CCN(CC5CC5(F)F)CC4)cc3F)ncc2C(F)(F)F)n[nH]1 (centres unmarked) [Compound 251, N^2-(4-(1-((2,2-difluorocyclopropyl)methyl)piperidin-4-yl)-2-fluoro-5-methylphenyl)-N^4-(5-methyl-1H-pyrazol-3-yl)-5-(trifluoromethyl)pyrimidine-2,4-diamine]
  IC50: 52 nM

## Cc1cc(Nc2nc(Nc3cc(C)c(C4CCN(C(=O)C5(N(C)C)CC5)CC4)cc3F)ncc2Cl)n[nH]1 [Compound 94, (4-(4-(5-chloro-4-(5-methyl-1H-pyrazol-3-ylamino)pyrimidin-2-ylamino)-5-fluoro-2-methylphenyl)piperidin-1-yl)(1-(dimethylamino)cyclopropyl)methanone]
  IC50: 13 nM

## Cc1cc(Nc2nc(Nc3cc(C)c(C4CCN(CCC(=O)NC5CC5)CC4)cc3F)ncc2Cl)n[nH]1 [Compound 247, 3-(4-(4-(5-chloro-4-(5-methyl-1H-pyrazol-3-ylamino)pyrimidin-2-ylamino)-5-fluoro-2-methylphenyl)piperidin-1-yl)-N-cyclopropylpropanamide]
  IC50: 62 nM

## Cc1cc(Nc2nc(Nc3cc(C)c(C4CCN(C)CC4)cc3C)ncc2Cl)n[nH]1 [Compound 6, 5-chloro-N2-(2,5-dimethyl-4-(1-methylpiperidin-4-yl)phenyl)-N4-(5-methyl-1H-pyrazol-3-yl)pyrimidine-2,4-diamine]
  IC50: 15 nM

## Cc1cc(Nc2nc(Nc3cc(C)c(C4CCCN(C(=O)C5(N)CC5)C4)cc3C)ncc2Cl)n[nH]1 (centres unmarked) [Compound 187, (1-aminocyclopropyl)(3-(4-(5-chloro-4-(5-methyl-1H-pyrazol-3-ylamino)pyrimidin-2-ylamino)-2,5-dimethylphenyl)piperidin-1-yl)methanone]
  IC50: 95 nM

## Cc1cc(Nc2nc(Nc3cc(C)c(C4CCN(C(=O)[C@@H]5CCCCN5C(C)C)CC4)cc3F)ncc2Cl)n[nH]1 [Compound 125, (S)-(4-(4-(5-chloro-4-(5-methyl-1H-pyrazol-3-ylamino)pyrimidin-2-ylamino)-5-fluoro-2-methylphenyl)piperidin-1-yl)(1-isopropylpiperidin-2-yl)methanone]
  IC50: 12 nM

## CCNC(C)(C)C(=O)N1CCC(c2cc(C)c(Nc3ncc(Cl)c(Nc4cc(C)[nH]n4)n3)cc2C)CC1 [Compound 175, 1-(4-(4-(5-chloro-4-(5-methyl-1H-pyrazol-3-ylamino)pyrimidin-2-ylamino)-2,5-dimethylphenyl)piperidin-1-yl)-2-(ethylamino)-2-methylpropan-1-one]
  IC50: 5 nM

## Cc1cc(Nc2nc(Nc3cc(C)c(C4CCN(CCS(C)(=O)=O)CC4)cc3C)ncc2Cl)n[nH]1 [Compound 56, 5-chloro-N2-(2,5-dimethyl-4-(1-(2-(methylsulfonyl)ethyl)piperidin-4-yl)phenyl)-N4-(5-methyl-1H-pyrazol-3-yl)pyrimidine-2,4-diamine]
  IC50: 6 nM

## Cc1cc(Nc2nc(Nc3cc(C(F)(F)F)c(C4CCN(CC(N)=O)CC4)cc3F)ncc2Cl)n[nH]1 [Compound 36, 2-(4-(4-(5-chloro-4-(5-methyl-1H-pyrazol-3-ylamino)pyrimidin-2-ylamino)-5-fluoro-2-(trifluoromethyl)phenyl)piperidin-1-yl)acetamide]
  IC50: 19 nM

## Cc1cc(Nc2nc(Nc3cc(C)c(C4CCN([C@@H](C)C(N)=O)CC4)cc3C)ncc2Cl)n[nH]1 [Compound 166, (S)-2-(4-(4-(5-chloro-4-(5-methyl-1H-pyrazol-3-ylamino)pyrimidin-2-ylamino)-2,5-dimethylphenyl)piperidin-1-yl)propanamide]
  IC50: 7 nM

## CNC1(C(=O)N2CCC(c3cc(C)c(Nc4ncc(Cl)c(Nc5cc(C)[nH]n5)n4)cc3C)CC2)CC1 [Compound 90, (4-(4-(5-chloro-4-(5-methyl-1H-pyrazol-3-ylamino)pyrimidin-2-ylamino)-2,5-dimethylphenyl)piperidin-1-yl)(1-(methylamino)cyclopropyl)methanone]
  IC50: 5 nM

## Cc1cc(Nc2nc(Nc3cc(C)c(C4CCN(C(=O)CN(C)C)CC4)cc3C)ncc2Cl)n[nH]1 [Compound 75, 1-(4-(4-(5-chloro-4-(5-methyl-1H-pyrazol-3-ylamino)pyrimidin-2-ylamino)-2,5-dimethylphenyl)piperidin-1-yl)-2-(dimethylamino)ethanone]
  IC50: 11 nM

## Cc1cc(Nc2nc(Nc3cc(C)c(C4CCN(C(=O)c5nc(C(C)C)no5)CC4)cc3F)ncc2Cl)n[nH]1 [Compound 265, (4-(4-(5-Chloro-4-(5-methyl-1H-pyrazol-3-ylamino)pyrimidin-2-ylamino)-5-fluoro-2-methylphenyl)piperidin-1-yl)(3-isopropyl-1,2,4-oxadiazol-5-yl)methanone]
  IC50: 91 nM

## Cc1cc(Nc2nc(Nc3cc(C)c(C4CCN(CCCS(=O)(=O)N5CCC5)CC4)cc3C)ncc2Cl)n[nH]1 [Compound 214, N^2-(4-(1-(3-(azetidin-1-ylsulfonyl)propyl)piperidin-4-yl)-2,5-dimethylphenyl)-5-chloro-N^4-(5-methyl-1H-pyrazol-3-yl)pyrimidine-2,4-diamine]
  IC50: 40 nM

## CCNC(=O)N1CCC(c2cc(C)c(Nc3ncc(Cl)c(Nc4cc(C)[nH]n4)n3)cc2C)CC1 [Compound 71, 4-(4-(5-chloro-4-(5-methyl-1H-pyrazol-3-ylamino)pyrimidin-2-ylamino)-2,5-dimethylphenyl)-N-ethylpiperidine-1-carboxamide]
  IC50: 2 nM

## Cc1cc(Nc2nc(Nc3cc(C)c(C4CCNC(C)C4)cc3F)ncc2Cl)n[nH]1 (centres unmarked) [Compound 273, 5-chloro-N2-(2-fluoro-5-methyl-4-(2-methylpiperidin-4-yl)phenyl)-N4-(5-methyl-1H-pyrazol-3-yl)pyrimidine-2,4-diamine]
  IC50: 18 nM

## Cc1noc(CN2CCC(c3cc(C)c(Nc4ncc(Cl)c(Nc5cc(C)[nH]n5)n4)cc3C)CC2)n1 [Compound 302, 5-chloro-N2-(2,5-dimethyl-4-(1-((3-methyl-1,2,4-oxadiazol-5-yl)methyl)piperidin-4-yl)phenyl)-N4-(5-methyl-1H-pyrazol-3-yl)pyrimidine-2,4-diamine]
  IC50: 6 nM

## Cc1cc(Nc2nc(Nc3cc(C)c(C4CCN(C(=O)N(C)C)CC4)cc3F)ncc2Cl)n[nH]1 [Compound 69, 4-(4-(5-Chloro-4-(5-methyl-1H-pyrazol-3-ylamino)pyrimidin-2-ylamino)-5-fluoro-2-methylphenyl)-N,N-dimethylpiperidine-1-carboxamide]
  IC50: 11 nM

## Cc1cc(Nc2nc(Nc3cc(C)c(C4CCN(C5CCOCC5)CC4)cc3C)ncc2Cl)n[nH]1 [Compound 252, 5-chloro-N2-(2,5-dimethyl-4-(1-(tetrahydro-2H-pyran-4-yl)piperidin-4-yl)phenyl)-N4-(5-methyl-1H-pyrazol-3-yl)pyrimidine-2,4-diamine]
  IC50: 14 nM

## CNC(=O)CN1CCC(c2cc(C)c(Nc3ncc(Cl)c(Nc4cc(C(F)(F)F)[nH]n4)n3)cc2C)CC1 [Compound 220, 2-(4-(4-(5-chloro-4-(5-(trifluoromethyl)-1H-pyrazol-3-ylamino)pyrimidin-2-ylamino)-2,5-dimethylphenyl)piperidin-1-yl)-N-methylacetamide]
  IC50: 37 nM
